The data set in a line: activity coefficient (dimensionless); of the first substance listed, at infinite dilution; xn = mol fraction of the nth substance listed. The conditions noted are these: Liquid, Chromatography, x1 = 0.

Here are results for 38 compounds from the NIST ThermoML archive (doi:10.1021/je200637v).

Numbers after ± are expanded uncertainties.

On to `CCOCC` [diethyl ether] + CCCCCCCCCC[N+](C)(C)C.O=S(=O)([N-]S(=O)(=O)C(F)(F)F)C(F)(F)F, for which the activity coefficient (322.85 K) was determined as 1.23 ± 0.04, the activity coefficient (332.65 K) turned out to be 1.24 ± 0.04 and the activity coefficient (343.15 K) is 1.21 ± 0.04.
On to `C1CCCCCC1` [cycloheptane] + CCCCCCCC[N+](C)(C)C.O=S(=O)([N-]S(=O)(=O)C(F)(F)F)C(F)(F)F, for which the activity coefficient came out at 10.8 ± 0.5 (322.85 K), 14.7 ± 0.68 (332.65 K) and 19.4 ± 0.9 (343.15 K).
For `C=CCCCC` [hex-1-ene] + CCCC[N+](C)(CCCC)CCCC.O=S(=O)([N-]S(=O)(=O)C(F)(F)F)C(F)(F)F the same measures were 4.31 ± 0.2, 4.4 ± 0.2 and 4.25 ± 0.19.
As to `CCCCCCCCCCC` [undecane] + CCCCCCCCCC[N+](C)(C)C.O=S(=O)([N-]S(=O)(=O)C(F)(F)F)C(F)(F)F, the activity coefficient is 12.4 ± 0.57 (322.85 K), 12.2 ± 0.56 (332.65 K) and 11.4 ± 0.52 (343.15 K).
Turning to `C#CCCCCC` [1-heptyne] + CCCCCCCC[N+](CCCCCCCC)(CCCCCCCC)CCCCCCCC.O=S(=O)([N-]S(=O)(=O)C(F)(F)F)C(F)(F)F, the activity coefficient reads like this: (322.85 K) 0.84 ± 0.03; (332.65 K) 0.86 ± 0.03; (343.15 K) 0.87 ± 0.03.
`C#CCCCC` [1-hexyne] + CCCCCCCCCC[N+](C)(C)C.O=S(=O)([N-]S(=O)(=O)C(F)(F)F)C(F)(F)F: the activity coefficient came out at 1.61 ± 0.06 (322.85 K), 1.63 ± 0.07 (332.65 K) and 1.57 ± 0.06 (343.15 K).
Regarding `CO` [methanol] + CCCCCCCCCC[N+](C)(C)C.O=S(=O)([N-]S(=O)(=O)C(F)(F)F)C(F)(F)F, the activity coefficient (322.85 K) stood at 0.79 ± 0.03, the activity coefficient (332.65 K) was 0.91 ± 0.03 and the activity coefficient (343.15 K) stood at 0.66 ± 0.03.
As to `Cc1ccccc1C` [1,2-dimethylbenzene] + CCCCCCCCCC[N+](C)(C)C.O=S(=O)([N-]S(=O)(=O)C(F)(F)F)C(F)(F)F, the activity coefficient is, setting by setting: (322.85 K) 1.03 ± 0.03; (332.65 K) 1.07 ± 0.03; (343.15 K) 1.07 ± 0.03.
Turning to `CCCCCC` [hexane] + CCCCCCCCCC[N+](C)(C)C.O=S(=O)([N-]S(=O)(=O)C(F)(F)F)C(F)(F)F, the activity coefficient is, setting by setting: (322.85 K) 4.2 ± 0.19; (332.65 K) 4.1 ± 0.18; (343.15 K) 3.93 ± 0.17.
As for `CCCCCCCCCCCC` [dodecane] + CCCCCCCCCC[N+](C)(C)C.O=S(=O)([N-]S(=O)(=O)C(F)(F)F)C(F)(F)F, the activity coefficient runs as follows: (322.85 K) 15.1 ± 0.7; (332.65 K) 14.8 ± 0.68; (343.15 K) 13.8 ± 0.63.
For `CCC(C)CC` [3-methylpentane] + CCCC[N+](C)(CCCC)CCCC.O=S(=O)([N-]S(=O)(=O)C(F)(F)F)C(F)(F)F, the activity coefficient is 6.1 ± 0.28 (322.85 K), 6.17 ± 0.28 (332.65 K) and 5.86 ± 0.27 (343.15 K).
For the compound `CCCO` [propan-1-ol] + CCCCCCCC[N+](CCCCCCCC)(CCCCCCCC)CCCCCCCC.O=S(=O)([N-]S(=O)(=O)C(F)(F)F)C(F)(F)F, the activity coefficient amounted to 1.22 ± 0.04 (322.85 K), 1.14 ± 0.03 (332.65 K) and 1.04 ± 0.03 (343.15 K).
Take `CCO` [ethanol] + CCCCCCCC[N+](CCCCCCCC)(CCCCCCCC)CCCCCCCC.O=S(=O)([N-]S(=O)(=O)C(F)(F)F)C(F)(F)F: the activity coefficient amounted to 1.18 ± 0.04 (322.85 K), 1.12 ± 0.03 (332.65 K) and 1.05 ± 0.03 (343.15 K).
With `CC1CCCCC1` [methylcyclohexane] + CCCCCCCC[N+](CCCCCCCC)(CCCCCCCC)CCCCCCCC.O=S(=O)([N-]S(=O)(=O)C(F)(F)F)C(F)(F)F, the activity coefficient by setting is: (322.85 K) 1.07 ± 0.03; (332.65 K) 1.06 ± 0.03; (343.15 K) 1.05 ± 0.03.
As to `CO` [methanol] + CCCC[N+](C)(CCCC)CCCC.O=S(=O)([N-]S(=O)(=O)C(F)(F)F)C(F)(F)F, the activity coefficient by setting is: (322.85 K) 0.96 ± 0.03; (332.65 K) 0.75 ± 0.03; (343.15 K) 0.88 ± 0.03.
Take `CCCCCCCC` [octane] + CCCCCCCCCC[N+](C)(C)C.O=S(=O)([N-]S(=O)(=O)C(F)(F)F)C(F)(F)F: the activity coefficient stood at 6.53 ± 0.3 (322.85 K), 6.41 ± 0.29 (332.65 K) and 6.1 ± 0.28 (343.15 K).
Turning to `CCCCCCCCCC` [decane] + CCCCCCCC[N+](C)(C)C.O=S(=O)([N-]S(=O)(=O)C(F)(F)F)C(F)(F)F, the activity coefficient runs as follows: (322.85 K) 19.3 ± 0.89; (332.65 K) 17.9 ± 0.83; (343.15 K) 16.2 ± 0.75.
In the case of `CCC=O` [propanal] + CCCCCCCC[N+](CCCCCCCC)(CCCCCCCC)CCCCCCCC.O=S(=O)([N-]S(=O)(=O)C(F)(F)F)C(F)(F)F, the activity coefficient was 0.25 ± 0.04 (322.85 K), 0.35 ± 0.04 (332.65 K) and 0.35 ± 0.04 (343.15 K).
For the compound `C#CCCCC` [1-hexyne] + CCCC[N+](C)(CCCC)CCCC.O=S(=O)([N-]S(=O)(=O)C(F)(F)F)C(F)(F)F, the activity coefficient (322.85 K) was 2.12 ± 0.1, the activity coefficient (332.65 K) was 2.24 ± 0.1 and the activity coefficient (343.15 K) was found to be 2.2 ± 0.1.
The like results for `CCC=O` [propanal] + CCCCCCCC[N+](C)(C)C.O=S(=O)([N-]S(=O)(=O)C(F)(F)F)C(F)(F)F were, in that order, 0.48 ± 0.03, 0.47 ± 0.03 and 0.46 ± 0.03.
Turning to `Cc1ccc(C)cc1` [1,4-dimethylbenzene] + CCCCCCCCCC[N+](C)(C)C.O=S(=O)([N-]S(=O)(=O)C(F)(F)F)C(F)(F)F, the activity coefficient amounted to 1.12 ± 0.03 (322.85 K), 1.15 ± 0.04 (332.65 K) and 1.13 ± 0.03 (343.15 K).
`C=O` [methanal] + CCCCCCCC[N+](CCCCCCCC)(CCCCCCCC)CCCCCCCC.O=S(=O)([N-]S(=O)(=O)C(F)(F)F)C(F)(F)F: the activity coefficient was found to be 0.07 (322.85 K), 0.08 (332.65 K) and 0.09 ± 0.04 (343.15 K).
As to `C=O` [methanal] + CCCCCCCC[N+](C)(C)C.O=S(=O)([N-]S(=O)(=O)C(F)(F)F)C(F)(F)F, the activity coefficient is 0.1 ± 0.04 (322.85 K), 0.11 ± 0.04 (332.65 K) and 0.12 ± 0.04 (343.15 K).
Consider `CCCC=O` [butanal] + CCCCCCCC[N+](CCCCCCCC)(CCCCCCCC)CCCCCCCC.O=S(=O)([N-]S(=O)(=O)C(F)(F)F)C(F)(F)F, for which the activity coefficient (343.15 K) came out at 0.31 ± 0.04.
On to `CC(C)O` [propan-2-ol] + CCCCCCCC[N+](CCCCCCCC)(CCCCCCCC)CCCCCCCC.O=S(=O)([N-]S(=O)(=O)C(F)(F)F)C(F)(F)F, for which the activity coefficient is, setting by setting: (322.85 K) 1.21 ± 0.04; (332.65 K) 1.13 ± 0.03; (343.15 K) 1.05 ± 0.03.
Take `CC(C)CC(C)(C)C` [2,2,4-trimethylpentane] + CCCC[N+](C)(CCCC)CCCC.O=S(=O)([N-]S(=O)(=O)C(F)(F)F)C(F)(F)F: the activity coefficient came to 8.87 ± 0.41 (322.85 K), 8.91 ± 0.41 (332.65 K) and 8.42 ± 0.39 (343.15 K).
Take `CC(C)CO` [2-methyl-1-propanol] + CCCC[N+](C)(CCCC)CCCC.O=S(=O)([N-]S(=O)(=O)C(F)(F)F)C(F)(F)F: the activity coefficient was 1.97 ± 0.09 (322.85 K), 1.82 ± 0.08 (332.65 K) and 1.64 ± 0.07 (343.15 K).
`CCOCC` [diethyl ether] + CCCCCCCC[N+](CCCCCCCC)(CCCCCCCC)CCCCCCCC.O=S(=O)([N-]S(=O)(=O)C(F)(F)F)C(F)(F)F: the activity coefficient is, setting by setting: (322.85 K) 0.71 ± 0.03; (332.65 K) 0.71 ± 0.03; (343.15 K) 0.71 ± 0.03.
With `CCCCCCCC` [octane] + CCCCCCCC[N+](CCCCCCCC)(CCCCCCCC)CCCCCCCC.O=S(=O)([N-]S(=O)(=O)C(F)(F)F)C(F)(F)F, the activity coefficient (322.85 K) was 1.73 ± 0.07, the activity coefficient (332.65 K) stood at 1.71 ± 0.07 and the activity coefficient (343.15 K) came to 1.69 ± 0.07.
As to `CCCCCCCCCC` [decane] + CCCC[N+](C)(CCCC)CCCC.O=S(=O)([N-]S(=O)(=O)C(F)(F)F)C(F)(F)F, the activity coefficient reads like this: (322.85 K) 19.6 ± 0.91; (332.65 K) 19.2 ± 0.89; (343.15 K) 17.8 ± 0.82.
As for `CCC[N+](=O)[O-]` [1-nitropropane] + CCCCCCCC[N+](CCCCCCCC)(CCCCCCCC)CCCCCCCC.O=S(=O)([N-]S(=O)(=O)C(F)(F)F)C(F)(F)F, the activity coefficient reads like this: (322.85 K) 0.48 ± 0.03; (332.65 K) 0.48 ± 0.03; (343.15 K) 0.47 ± 0.03.
On to `CC(C)O` [propan-2-ol] + CCCCCCCC[N+](C)(C)C.O=S(=O)([N-]S(=O)(=O)C(F)(F)F)C(F)(F)F, for which the activity coefficient (322.85 K) stood at 1.63 ± 0.07 and the activity coefficient (343.15 K) amounted to 1.32 ± 0.05.
Take `CC1CCCC1` [methylcyclopentane] + CCCCCCCCCC[N+](C)(C)C.O=S(=O)([N-]S(=O)(=O)C(F)(F)F)C(F)(F)F: the activity coefficient reads like this: (322.85 K) 2.99 ± 0.14; (332.65 K) 2.99 ± 0.14; (343.15 K) 2.83 ± 0.13.
As to `ClC(Cl)(Cl)Cl` [tetrachloromethane] + CCCCCCCCCC[N+](C)(C)C.O=S(=O)([N-]S(=O)(=O)C(F)(F)F)C(F)(F)F, the activity coefficient amounted to 1.46 ± 0.06 (322.85 K), 1.5 ± 0.06 (332.65 K) and 1.47 ± 0.06 (343.15 K).
For `CCCCCCC` [heptane] + CCCC[N+](C)(CCCC)CCCC.O=S(=O)([N-]S(=O)(=O)C(F)(F)F)C(F)(F)F, the activity coefficient is, setting by setting: (322.85 K) 8.88 ± 0.41; (332.65 K) 8.82 ± 0.4; (343.15 K) 8.34 ± 0.38.
With `CCCC(C)=O` [pentan-2-one] + CCCCCCCC[N+](C)(C)C.O=S(=O)([N-]S(=O)(=O)C(F)(F)F)C(F)(F)F, the activity coefficient was determined as 0.57 ± 0.03 (322.85 K), 0.57 ± 0.03 (332.65 K) and 0.57 ± 0.03 (343.15 K).
Consider `CC(C)OC(C)C` [diisopropyl ether] + CCCCCCCC[N+](C)(C)C.O=S(=O)([N-]S(=O)(=O)C(F)(F)F)C(F)(F)F, for which the activity coefficient reads like this: (322.85 K) 3.22 ± 0.15; (332.65 K) 3.15 ± 0.14; (343.15 K) 3.08 ± 0.14.
As to `Cc1ccccc1C` [1,2-dimethylbenzene] + CCCCCCCC[N+](CCCCCCCC)(CCCCCCCC)CCCCCCCC.O=S(=O)([N-]S(=O)(=O)C(F)(F)F)C(F)(F)F, the activity coefficient is 0.57 ± 0.03 (332.65 K) and 0.58 ± 0.03 (343.15 K).
